Experimental data reported in patent publication US12331022B2, “Spiropiperidine allosteric modulators of nicotinic acetylcholine receptors” (Merck Sharp & Dohme LLC, priority 2019, dated 2025).
Where two headings read alike, the source gives them in different places.

Target: T1, human α7 nAChR (Homo sapiens, UniProt P36544)
T1 construct: host or cells: HEK
Assay: Automated patch-clamp electrophysiology functional assay (Assay A)
Assay type: cell-based
Settings: HEK cell line stably expressing human RIC-3 and human α7, IonFlux HT whole-cell population patch, with or without 40 μM acetylcholine
Description: The α7 nAChR positive allosteric modulator (PAM) activity of the present compounds may be tested using assays known in the art. The α7 nAChR PAMs described herein have activities in an automated patch-clamp electrophysiology functional assay as described in the examples. The assay was performed using the IonFlux HT in a whole-cell, population patch configuration. See Golden et al. Assay Drug Dev. Technol. (2011) 9:608-619. The compounds were assessed for their ability to modulate the function of the human α7 nAChR stably expressed in a HEK cell line both in the presence, and in the absence of the natural α7 agonist acetylcholine. By performing a series of such measurements at different concentrations, the effective concentration of the α7 nAChR PAMs (EC50) was determined. See Spencer et al. Assay Drug Dev. Technol. (2012) 10:313-324.
Direct activation of α7 (agonism), and potentiation of acetylcholine-evoked α7 currents was determined as follows:
Automated patch-clamp electrophysiology was performed using the IonFlux HT (Fluxion Biosciences Inc., San Francisco, CA) in the whole-cell, population patch configuration. Test compounds were assessed for their ability to modulate the function of the α7 nicotinic acetylcholine receptor both in the presence, and in the absence of the natural α7 agonist acetylcholine. A HEK cell line stably expressing both human RIC-3 and human α7 (PrecisION hnAChR α7/RIC-3, Eurofins Pharma, St. Charles, MO) was cultured in 175 cm^2 triple-layer tissue culture flasks to no more than 90% confluency in DMEM/F-12 growth media supplemented with 10% heat-inactivated fetal bovine serum, 1% non-essential amino acids, 0.625 μg/mL Puromycin, and 400 μg/mL Geneticin. Immediately prior to assay, cells were detached by first aspirating growth media, rinsing with Dulbecco's phosphate buffered saline, and then adding 10 mL of Accutase (Innovative Cell Technologies, San Diego, CA) to the flask and then incubating at 37° C. for 5 minutes. Detached cells were then recovered by the addition of 40 mL of CHO-serum-free media supplemented with 25 mM HEPES, and rocked gently in a 50 mL conical tube for 20 minutes prior to patch-clamp assay. After recovery, cells were pelleted by centrifugation at 1,000 RPM for 1 minute in a compact bench top centrifuge; recovery media was aspirated and cells were resuspended in external recording solution (150 mM NaCl, 5 mM KCl, 2 mM CaCl2, 1 mM MgCl2, 10 mM HEPES, 12 mM dextrose) to a density of 5.0×10^6 cells/mL. The cell suspension was added to the cell inlet wells on an IonFlux HT population patch plate which had previously been rinsed and primed with deionized H2O. Test compounds were serially diluted in DMSO and then resuspended to the final test concentration in external recording solution, with, or without 40 μM acetylcholine added to the external recording solution; test compounds were then transferred to the IonFlux HT population patch plate. Internal recording solution (110 mM TrisPO4, 28 mM TrisBase, 0.1 mM CaCl2, 2 mM MgCl2, 11 mM EGTA, 4 mM MgATP) was added to the internal recording solution inlet wells on the IonFlux HT patch plate previously loaded with cells and test compounds, and the plate loaded into the IonFlux HT instrument. A protocol was executed on the IonFlux HT to trap the cells, break into the cells, and establish the whole-cell recording configuration; cells were voltage-clamped at a holding potential of −60 mV for the duration of the experiment, all experiments were conducted at room temperature, and the IonFlux HT injection pressure was 8 psi for solution applications. Upon establishing the whole-cell configuration, external recording solution was perfused into the recording chambers for 120 seconds and then 40 μM acetylcholine was applied for 1 second and immediately washed off with external recording solution for 60 seconds. […]

T1 sequence (P36544 23-502): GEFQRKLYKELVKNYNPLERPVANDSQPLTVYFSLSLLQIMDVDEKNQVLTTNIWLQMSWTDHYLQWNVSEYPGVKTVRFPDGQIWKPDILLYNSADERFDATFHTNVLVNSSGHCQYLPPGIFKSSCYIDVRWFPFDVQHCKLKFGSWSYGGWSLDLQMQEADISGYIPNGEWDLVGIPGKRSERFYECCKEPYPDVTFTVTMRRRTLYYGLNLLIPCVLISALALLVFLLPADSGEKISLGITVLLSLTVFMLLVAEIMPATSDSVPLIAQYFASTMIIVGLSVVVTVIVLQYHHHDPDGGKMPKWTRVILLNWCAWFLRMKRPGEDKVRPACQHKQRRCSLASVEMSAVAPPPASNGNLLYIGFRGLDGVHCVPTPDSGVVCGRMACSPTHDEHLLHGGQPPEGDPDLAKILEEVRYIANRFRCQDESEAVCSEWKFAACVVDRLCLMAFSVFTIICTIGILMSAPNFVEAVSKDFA

SMILES | EC50 (read-out: α7 nAChR EC50) | EC50 (read-out: α7 nAChR Potency)
COc1ccc(F)c(OCC2CC23CCN(S(N)(=O)=O)CC3)c1 (racemic) [Example A26, 1-[(2-fluoro-5-methoxyphenoxy)methyl]-6-azaspiro[2.5]octane-6-sulfonamide] | 0.65 µM | 0.5 to 5 µM
COc1cc(OC[C@H]2CC23CCN(S(N)(=O)=O)CC3)ccc1F [Example A5, (1S)-1-[(4-fluoro-3-methoxyphenoxy)methyl]-6-azaspiro[2.5]octane-6-sulfonamide] | 6.2 µM | 5 to 50 µM
NS(=O)(=O)N1CCC2(CC1)C(CSc1ccc(F)cc1C(F)(F)F)C2(F)F (stereo not shown) [Example 17, 1,1-Difluoro-2-({[4-fluoro-2-(trifluoromethyl)phenyl]sulfanyl}methyl)-6-azaspiro[2.5]octane-6-sulfonamide] | 0.72 µM | 0.5 to 5 µM
NS(=O)(=O)N1CCC2(CC1)C[C@@H]2COc1noc(-c2ccccc2)n1 [Example A13, (1S)-1-{[(5-phenyl-1,2,4-oxadiazol-3-yl)oxy]methyl}-6-azaspiro[2.5]octane-6-sulfonamide] | 4.1 µM | 0.5 to 5 µM
NS(=O)(=O)N1CCC2(CC1)C(/C=C/c1ccc(F)cc1C(F)(F)F)C2(F)F (stereo not shown) [Example 19, 1,1-Difluoro-2-{(E)-2-[4-fluoro-2-(trifluoromethyl)phenyl]ethenyl}-6-azaspiro[2.5]octane-6-sulfonamide] | 1.9 µM | 0.5 to 5 µM
COc1ccc(Cl)cc1NC(=O)[C@H]1C(F)(F)C12CCN(S(N)(=O)=O)CC2 [Example B3, (1S)—N-(5-chloro-2-methoxyphenyl)-2,2-difluoro-6-sulfamoyl-6-azaspiro[2.5]octane-1-carboxamide] | 1.4 µM | 0.5 to 5 µM
CS(=O)(=O)c1cccc(OC[C@@H]2CC23CCN(S(N)(=O)=O)CC3)n1 [Example A45, (1R)-1-({[6-(methylsulfonyl)pyridin-2-yl]oxy}methyl)-6-azaspiro[2.5]octane-6-sulfonamide] | – | 5 to 50 µM
Cn1nc(C(F)(F)F)cc1OCC1C(F)(F)C12CCN(S(N)(=O)=O)CC2 (single isomer, unassigned) [Example A12, 1,1-difluoro-2-({[1-methyl-3-(trifluoromethyl)-1H-pyrazol-5-yl]oxy}methyl)-6-azaspiro[2.5]octane-6-sulfonamide] | 4.2 µM | 0.5 to 5 µM
NS(=O)(=O)N1CCC2(CC1)C[C@@H]2COc1cccc(OCC(F)(F)F)n1 [Example A38, (1S)-1-({[6-(2,2,2-trifluoroethoxy)pyridin-2-yl]oxy}methyl)-6-azaspiro[2.5]octane-6-sulfonamide] | 0.72 µM | 0.5 to 5 µM
NS(=O)(=O)N1CCC2(CC1)CC2COc1ccccc1OC(F)F (single isomer, unassigned) [Example A9, 1-{[2-(difluoromethoxy)phenoxy]methyl}-6-azaspiro[2.5]octane-6-sulfonamide] | 0.65 µM | 0.5 to 5 µM
CC(C)(C)c1cccc(OC[C@@H]2CC23CCN(S(N)(=O)=O)CC3)n1 [Example A55, (1R)-1-{[(6-tert-butylpyridin-2-yl)oxy]methyl}-6-azaspiro[2.5]octane-6-sulfonamide] | – | 0.5 to 5 µM
COc1ccc(Cl)cc1OCC1CC12CCN(S(N)(=O)=O)CC2 (racemic) [Example A42, 1-[(5-chloro-2-methoxyphenoxy)methyl]-6-azaspiro[2.5]octane-6-sulfonamide] | 0.12 µM | 0.1 to 0.5 µM

Other lines, results leading:

EC50 (read-out: α7 nAChR EC50) | EC50 (read-out: α7 nAChR Potency) | SMILES
0.069 µM | ≤ 0.1 µM | NS(=O)(=O)N1CCC2(CC1)C[C@H]2COc1cccc(-c2ccccc2)n1 [Example A57, (1R)-1-{[(6-phenylpyridin-2-yl)oxy]methyl}-6-azaspiro[2.5]octane-6-sulfonamide]
0.037 µM | ≤ 0.1 µM | NS(=O)(=O)N1CCC2(CC1)C(COc1cccc(OC(F)F)c1)C2(F)F (single isomer, unassigned) [Example A28, 2-{[3-(difluoromethoxy)phenoxy]methyl}-1,1-difluoro-6-azaspiro[2.5]octane-6-sulfonamide]
0.13 µM | 0.1 to 0.5 µM | NS(=O)(=O)N1CCC2(CC1)C[C@H]2COc1cccc(OCC2CC2)n1 [Example A17, (1R)-1-({[6-(cyclopropylmethoxy)pyridin-2-yl]oxy}methyl)-6-azaspiro[2.5]octane-6-sulfonamide]
0.052 µM | ≤ 0.1 µM | COc1ccc(Cl)cc1SC[C@@H]1CC12CCN(S(N)(=O)=O)CC2 [Example 11, (1R)-1-{[(5-Chloro-2-methoxyphenyl)sulfanyl]methyl}-6-azaspiro[2.5]octane-6-sulfonamide]
0.14 µM | 0.1 to 0.5 µM | NS(=O)(=O)N1CCC2(CC1)CC2COc1ccnc(OCC(F)(F)F)c1 (racemic) [Example A32, 1-({[2-(2,2,2-trifluoroethoxy)pyridin-4-yl]oxy}methyl)-6-azaspiro[2.5]octane-6-sulfonamide]
0.47 µM | 0.1 to 0.5 µM | NS(=O)(=O)N1CCC2(CC1)CC2COc1cc(F)ccc1C(F)(F)F (single isomer, unassigned) [Example A15, 1-{[5-fluoro-2-(trifluoromethyl)phenoxy]methyl}-6-azaspiro[2.5]octane-6-sulfonamide]
0.063 µM | ≤ 0.1 µM | COc1ccc(Cl)cc1NC(=O)[C@@H]1C(F)(F)C12CCN(S(N)(=O)=O)CC2 [Example 15, (1R)—N-(5-Chloro-2-methoxyphenyl)-2,2-difluoro-6-sulfamoyl-6-azaspiro[2.5]octane-1-carboxamide]
0.1 µM | 0.1 to 0.5 µM | NS(=O)(=O)N1CCC2(CC1)C[C@H]2COc1cccc(N2CCOCC2)n1 [Example 16, (1R)-1-({[6-(Morpholin-4-yl)pyridin-2-yl]oxy}methyl)-6-azaspiro[2.5]octane-6-sulfonamide]
0.074 µM | ≤ 0.1 µM | NS(=O)(=O)N1CCC2(CC1)C[C@H]2COc1cccc(OCC(F)(F)F)n1 [Example A37, (1R)-1-({[6-(2,2,2-trifluoroethoxy)pyridin-2-yl]oxy}methyl)-6-azaspiro[2.5]octane-6-sulfonamide]
– | 0.1 to 0.5 µM | NS(=O)(=O)N1CCC2(CC1)C(COc1cccc(OCC(F)(F)F)n1)C2(F)F (single isomer, unassigned) [Example A41, 1,1-difluoro-2-({[6-(2,2,2-trifluoroethoxy)pyridin-2-yl]oxy}methyl)-6-azaspiro[2.5]octane-6-sulfonamide]
0.33 µM | 0.1 to 0.5 µM | NS(=O)(=O)N1CCC2(CC1)CC2COc1cccc(OCC(F)(F)F)c1 (stereo not shown) [Example 7, 1-{[3-(2,2,2-Trifuoroethoxy)phenoxy]methyl}-6-azaspiro[2.5]octane-6-sulfonamide]
0.25 µM | 0.1 to 0.5 µM | Cc1ccn(-c2cccc(OC[C@@H]3CC34CCN(S(N)(=O)=O)CC4)n2)n1 [Example A50, (1R)-1-({[6-(3-methyl-1H-pyrazol-1-yl)pyridin-2-yl]oxy}methyl)-6-azaspiro[2.5]octane-6-sulfonamide]
0.071 µM | ≤ 0.1 µM | NS(=O)(=O)N1CCC2(CC1)C(COc1ccnc(OC(F)F)c1)C2(F)F (single isomer, unassigned) [Example 2, 2-({[2-(Difluoromethoxy)pyridin-4-yl]oxy}methyl)-1,1-difluoro-6-azaspiro[2.5]octane-6-sulfonamide]
0.02 µM | ≤ 0.1 µM | NS(=O)(=O)N1CCC2(CC1)C(COc1ccnc(OCC(F)(F)F)c1)C2(F)F (single isomer, unassigned) [Example A33, 1,1-difluoro-2-({[2-(2,2,2-trifluoroethoxy)pyridin-4-yl]oxy}methyl)-6-azaspiro[2.5]octane-6-sulfonamide]
